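Each compound was tested at five concentrations against cells in 96-well plates for 48 hours. At the GI50, growth is halved.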 Activity calls are given as the source filed them. Cut-off read from the data, not from the text of the source: active = GI50 up to about 1.1 µM and inactive = higher.
Tests used:
Experiment in all cases: NCI anticancer screen, dose series, 48 h
CAKI-1 = system: CAKI-1
LOX IMVI = system: LOX IMVI
CCRF-CEM = system: CCRF-CEM
HCT-116 = system: HCT-116
HL-60 = system: HL-60
SN12C = system: SN12C
MCF7 = system: MCF7
SNB-19 = system: SNB-19
COLO 205 = system: COLO 205
UACC-257 = system: UACC-257
EKVX = system: EKVX
786-0 = system: 786-0
OVCAR-8 = system: OVCAR-8
HT-29 = system: HT-29
OVCAR-5 = system: OVCAR-5
MDA-MB-435 = system: MDA-MB-435
SR = system: SR
Hs-578T = system: Hs-578T
NCI-H23 = system: NCI-H23
TK-10 = system: TK-10
NCI-H460 = system: NCI-H460
ACHN = system: ACHN
NCI-H522 = system: NCI-H522
DU-145 = system: DU-145
T47D = system: T47D
OVCAR-3 = system: OVCAR-3
KM12 = system: KM12
OVCAR-4 = system: OVCAR-4
Malme-3M = system: Malme-3M
M14 = system: M14
SK-MEL-2 = system: SK-MEL-2
HOP-92 = system: HOP-92
UACC-62 = system: UACC-62
A549 = system: A549
U-251 = system: U-251
PC-3 = system: PC-3
NCI-H226 = system: NCI-H226
HOP-62 = system: HOP-62
BT-549 = system: BT-549
RXF 393 = system: RXF 393
RPMI-8226 = system: RPMI-8226
HCC 2998 = system: HCC 2998
SF-268 = system: SF-268
SK-MEL-28 = system: SK-MEL-28
IGROV-1 = system: IGROV-1
SK-OV-3 = system: SK-OV-3
HCT-15 = system: HCT-15
A498 = system: A498
MOLT-4 = system: MOLT-4
NCI/ADR-RES = system: NCI/ADR-RES
SK-MEL-5 = system: SK-MEL-5
K562 = system: K562
SNB-75 = system: SNB-75
MDA-MB-231 = system: MDA-MB-231
SF-295 = system: SF-295
SF-539 = system: SF-539
SW-620 = system: SW-620
UO-31 = system: UO-31

## Nc1nc(Cl)c2ncn(Cc3cccc(CCl)c3)c2n1
CAKI-1
  GI50: 1.23 µM (inactive)
LOX IMVI
  GI50: 3.33 µM (inactive)
CCRF-CEM
  GI50: 3.18 µM (inactive)
HCT-116
  GI50: 2 µM (inactive)
HL-60
  GI50: 3.95 µM (inactive)
SN12C
  GI50: 8.05 µM (inactive)
MCF7
  GI50: 5.35 µM (inactive)
SNB-19
  GI50: 5.89 µM (inactive)
COLO 205
  GI50: 8.38 µM (inactive)
UACC-257
  GI50: 6.01 µM (inactive)
EKVX
  GI50: 8.97 µM (inactive)
786-0
  GI50: 5.37 µM (inactive)
OVCAR-8
  GI50: 3.24 µM (inactive)
HT-29
  GI50: 3.87 µM (inactive)
OVCAR-5
  GI50: 9.16 µM (inactive)
MDA-MB-435
  GI50: 6.73 µM (inactive)
SR
  GI50: 1.74 µM (inactive)
Hs-578T
  GI50: 7.03 µM (inactive)
NCI-H23
  GI50: 1.87 µM (inactive)
TK-10
  GI50: 6.31 µM (inactive)
NCI-H460
  GI50: 3.87 µM (inactive)
ACHN
  GI50: 3.45 µM (inactive)
NCI-H522
  GI50: 2.4 µM (inactive)
DU-145
  GI50: 6.03 µM (inactive)
T47D
  GI50: 7.36 µM (inactive)
OVCAR-3
  GI50: 1.33 µM (inactive)
KM12
  GI50: 4.53 µM (inactive)
OVCAR-4
  GI50: 2.13 µM (inactive)
Malme-3M
  GI50: 5.81 µM (inactive)
M14
  GI50: 3.66 µM (inactive)
SK-MEL-2
  GI50: 12.1 µM (inactive)
HOP-92
  GI50: 1.64 µM (inactive)
UACC-62
  GI50: 4.16 µM (inactive)
A549
  GI50: 13.2 µM (inactive)
U-251
  GI50: 2.17 µM (inactive)
PC-3
  GI50: 10.2 µM (inactive)
NCI-H226
  GI50: 6.28 µM (inactive)
HOP-62
  GI50: 2.84 µM (inactive)
BT-549
  GI50: 4.09 µM (inactive)
RXF 393
  GI50: 2.61 µM (inactive)
RPMI-8226
  GI50: 2.57 µM (inactive)
HCC 2998
  GI50: 3.03 µM (inactive)
SF-268
  GI50: 5.09 µM (inactive)
SK-MEL-28
  GI50: 5.28 µM (inactive)
IGROV-1
  GI50: 3.31 µM (inactive)
SK-OV-3
  GI50: 20 µM (inactive)
HCT-15
  GI50: 2.12 µM
A498
  GI50: 25 µM (inactive)
MOLT-4
  GI50: 3.6 µM (inactive)
NCI/ADR-RES
  GI50: 3.47 µM (inactive)
SK-MEL-5
  GI50: 5.7 µM (inactive)
K562
  GI50: 4.38 µM (inactive)
SNB-75
  GI50: 9.75 µM (inactive)
MDA-MB-231
  GI50: 11 µM (inactive)
SF-295
  GI50: 7.01 µM (inactive)
SF-539
  GI50: 5.24 µM (inactive)
SW-620
  GI50: 3.61 µM (inactive)
UO-31
  GI50: 13.4 µM (inactive)

## CCOC(=O)c1ccc(/N=C/C=C(\Nc2ccc(C(=O)OCC)cc2)c2ccc3ccccc3c2)cc1
CAKI-1
  GI50: 25 µM (inactive)
LOX IMVI
  GI50: 15.7 µM (inactive)
CCRF-CEM
  GI50: 17.9 µM (inactive)
HCT-116
  GI50: 31.4 µM (inactive)
HL-60
  GI50: 25.4 µM (inactive)
SN12C
  GI50: 26.7 µM (inactive)
MCF7
  GI50: 23.4 µM (inactive)
SNB-19
  GI50: 36.2 µM (inactive)
COLO 205
  GI50: 16.2 µM (inactive)
UACC-257
  GI50: 31 µM (inactive)
786-0
  GI50: 23.3 µM (inactive)
OVCAR-8
  GI50: 35.4 µM (inactive)
HT-29
  GI50: 18.4 µM (inactive)
OVCAR-5
  GI50: 48.4 µM (inactive)
MDA-MB-435
  GI50: 16.2 µM (inactive)
SR
  GI50: 20.3 µM (inactive)
Hs-578T
  GI50: 31.1 µM (inactive)
NCI-H23
  GI50: 21 µM (inactive)
TK-10
  GI50: 19.8 µM (inactive)
NCI-H460
  GI50: 25.8 µM (inactive)
ACHN
  GI50: 30.5 µM (inactive)
NCI-H522
  GI50: 27.5 µM (inactive)
DU-145
  GI50: 37.3 µM (inactive)
T47D
  GI50: 13.9 µM (inactive)
OVCAR-3
  GI50: 23.1 µM (inactive)
KM12
  GI50: 17.2 µM (inactive)
OVCAR-4
  GI50: 26.4 µM (inactive)
Malme-3M
  GI50: 20.5 µM (inactive)
M14
  GI50: 23.7 µM (inactive)
SK-MEL-2
  GI50: 23.5 µM (inactive)
HOP-92
  GI50: 78 µM (inactive)
UACC-62
  GI50: 14 µM (inactive)
A549
  GI50: 34.5 µM (inactive)
U-251
  GI50: 32.8 µM (inactive)
PC-3
  GI50: 31.3 µM (inactive)
NCI-H226
  GI50: 34 µM (inactive)
HOP-62
  GI50: 30.8 µM (inactive)
BT-549
  GI50: 17 µM (inactive)
RXF 393
  GI50: 21.1 µM (inactive)
RPMI-8226
  GI50: 18.7 µM (inactive)
SF-268
  GI50: 42.1 µM (inactive)
SK-MEL-28
  GI50: 23.5 µM (inactive)
IGROV-1
  GI50: 36.2 µM (inactive)
SK-OV-3
  GI50: 30.2 µM (inactive)
HCT-15
  GI50: 20.7 µM
A498
  GI50: 95.9 µM (inactive)
MOLT-4
  GI50: 3.97 µM (inactive)
NCI/ADR-RES
  GI50: 21.5 µM (inactive)
SK-MEL-5
  GI50: 18.3 µM (inactive)
K562
  GI50: 13.3 µM (inactive)
SNB-75
  GI50: 28 µM (inactive)
MDA-MB-231
  GI50: 25.1 µM (inactive)
SF-295
  GI50: 28.2 µM (inactive)
SF-539
  GI50: 20.2 µM (inactive)
SW-620
  GI50: 45.2 µM (inactive)
UO-31
  GI50: 40.8 µM (inactive)

Reference: ChEMBL document CHEMBL1201862, “PubChem BioAssay data set” (2004)
